Assay results as given in patent publication US20210179598A1, “SELECTIVE JAK2 INHIBITOR AND APPLICATION THEREOF” (EAST CHINA UNIVERSITY OF SCIENCE AND TECHNOLOGY, priority 2018, published 2021).
Like-named read-outs stand apart in the source and are kept apart here.

How the values were obtained:
ALK = ALK (Homo sapiens, UniProt Q9UM73); assay: ALK kinase IC50 test (HTRF); format: biochemical
Excerpt: According to HTRF method, the peptide substrate was labeled with a biotin, which can specifically bind to XL665-labeled streptavidin. When the kinase adds a phosphate group to the polypeptide substrate in the first step, its Eu-labeled specific phosphorylation antibody can recognize and bind to it. In this way, in the second step of detection, a complex of XL665-labeled streptavidin, phosphorylated peptide substrate and Eu-labeled phosphorylation antibody can be formed. Since the distance between XL665 and Eu is short, FRET can be formed. On the other hand, Eu has a relatively long fluorescence half-life and can be applied to time-resolved fluorescence detection.
10 μL of reaction system, 4 μL test compound, 2 μL kinase, 2 μL biotin-labeled substrate and 2 μL ATP, was added into a 384-well plate, shaken for 30 s, and incubated at room temperature for 1 hour. 5 μL of Eu-labeled phosphorylation site-specific antibody and 5 μL of XL665-labeled streptavidin were added. The reaction system was shaken for 30 s, and incubated at room temperature for 1 hour. A microplate reader was used to detect the fluorescence signal. The inhibition rates of the compounds under 8 concentration gradients were determined, and the IC50 value of each compound was calculated by fitting curve with Origin 8.0. […] Each experiment was performed in triplicate.
(§1) NOTE: HEL, SET-2, H3122 cells were purchased from ATCC (American type culture collection), Z′-LYTETM kinase assay platform was purchased from Invitrogen, HTRF KinEASETM-TK was purchased from Cisbio, and Cell Counting Kit-8 was purchased from Beyotime.

H3122 cells = assay: CCK-8 cell proliferation detection, H3122 cells; format: cell-based
Excerpt: (§2) WST-8 (chemical name: 2-(2-methoxy-4-nitrophenyl)-3-(4-nitrophenyl)-5-(2,4-disulfo benzene)-2H-tetrazolium monosodium), which is reduced to a highly water-soluble yellow formazan product (Formazan dye) by the dehydrogenase in cells under the action of the electron carrier dimethyl 1-methoxy-5-methylphenazinium sulfate (1-Methoxy PMS). The amount of the produced formazan is proportional to the number of living cells. Therefore, the survival rate of cells can be calculated indirectly by measuring the absorbance at 450 nm. The half inhibition rate of the compound on the proliferation of H3122, SET2, HEL cells can be determined by the CCK-8 method.
(§3) RPIM medium containing 10% FBS was used to culture cells (100 μL per well), and 3500 cells were inoculated into a 96-well plate, and placed in a 37° C., 5% CO2 incubator for 24 h, until 50%-70% of the cell confluence was achieved. Drugs with different concentration gradients were added respectively, and incubated for another 72 hrs. […] And finally the absorption value of each well was measured at 450 nm.
as §1

SET 2 (JAK2 V617F) cells = assay: CCK-8 cell proliferation detection, SET2 cells; format: cell-based; conditions: Homo sapiens, Table 2, CCK-8, 72 hrs
Excerpt: as §2, §3, §1

HEL (JAK2 V617F) cells = assay: CCK-8 cell proliferation detection, HEL cells; format: cell-based; conditions: Homo sapiens, Table 2, CCK-8, 72 hrs
Excerpt: as §2, §3, §1

JAK2 = JAK2 (Homo sapiens, UniProt O60674); assay: JAK2 kinase activity test at molecular level (Z'-LYTE FRET); format: biochemical
Chain of JAK2 (O60674 whole entry): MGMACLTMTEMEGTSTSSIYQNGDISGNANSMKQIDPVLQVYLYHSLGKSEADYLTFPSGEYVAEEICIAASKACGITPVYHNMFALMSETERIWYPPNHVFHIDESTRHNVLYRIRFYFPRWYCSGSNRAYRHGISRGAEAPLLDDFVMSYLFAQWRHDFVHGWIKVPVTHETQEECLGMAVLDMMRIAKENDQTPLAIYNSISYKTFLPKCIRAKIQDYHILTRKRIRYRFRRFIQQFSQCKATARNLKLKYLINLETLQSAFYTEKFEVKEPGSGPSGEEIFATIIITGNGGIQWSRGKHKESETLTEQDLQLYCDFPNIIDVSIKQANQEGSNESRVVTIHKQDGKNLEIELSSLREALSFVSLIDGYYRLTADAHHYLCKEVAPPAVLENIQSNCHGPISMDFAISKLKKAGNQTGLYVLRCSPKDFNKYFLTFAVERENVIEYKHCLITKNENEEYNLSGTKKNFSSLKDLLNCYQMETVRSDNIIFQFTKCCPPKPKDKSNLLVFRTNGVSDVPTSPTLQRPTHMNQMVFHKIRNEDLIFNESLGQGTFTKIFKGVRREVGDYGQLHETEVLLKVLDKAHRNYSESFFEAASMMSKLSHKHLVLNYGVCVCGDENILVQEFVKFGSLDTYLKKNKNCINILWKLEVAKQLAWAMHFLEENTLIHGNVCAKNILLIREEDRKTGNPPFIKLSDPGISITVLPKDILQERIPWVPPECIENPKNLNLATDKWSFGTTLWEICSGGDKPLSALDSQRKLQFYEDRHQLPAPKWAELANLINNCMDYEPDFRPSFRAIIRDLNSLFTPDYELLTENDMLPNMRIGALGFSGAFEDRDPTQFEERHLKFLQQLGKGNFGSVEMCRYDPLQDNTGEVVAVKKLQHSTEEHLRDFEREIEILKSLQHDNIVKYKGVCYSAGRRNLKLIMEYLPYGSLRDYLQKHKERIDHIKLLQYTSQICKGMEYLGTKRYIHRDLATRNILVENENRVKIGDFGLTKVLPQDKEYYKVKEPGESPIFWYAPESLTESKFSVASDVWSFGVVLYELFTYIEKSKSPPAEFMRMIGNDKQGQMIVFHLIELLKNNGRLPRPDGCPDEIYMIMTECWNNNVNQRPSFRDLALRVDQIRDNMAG
Procedure: JAK2 can catalyze the transfer of a phosphate group of adenosine triphosphate (ATP) to a polypeptide substrate, and the polypeptide substrate is labeled with two fluorescent groups, coumarin and fluorescein. […] Therefore, the inhibition rates of different compounds can be calculated by measuring the ratio of enzyme-catalyzed substrate phosphorylation percentages.
10 μL reaction system, 2.5 μL test compound, 5 μL kinase/peptide substrate mixture and 2.5 μL ATP solution were added into a 384-well plate, shaken for 30 s, and incubated at room temperature for 1 hour. 5 μL of proteolytic enzyme and 15 μL of the reaction system were added and shaken for 30 s and incubated at room temperature for 1 h. 5 μL of stop reagent was added, and the reaction system with a total volume of 20 μL was shaken for 30 seconds. A microplate reader was used to detect the fluorescence signal. […] The inhibition rates of the compound at 7 concentration gradients were determined, and the IC50 value for each compound was calculated by fitting curve with Origin 8.0.
as §1

[1] = Table 4, configurations of MXY-193
[2] = Homo sapiens, NCI-H3122, Table 4, configurations of MXY-193
[3] = Homo sapiens, NCI-H3122, 72 h, Table 2, CCK-8, 72 hrs
[4] = Homo sapiens, NCI-H3122, Table 2, CCK-8, 72 hrs

Chain of ALK (Q9UM73 19-1620, species assumed): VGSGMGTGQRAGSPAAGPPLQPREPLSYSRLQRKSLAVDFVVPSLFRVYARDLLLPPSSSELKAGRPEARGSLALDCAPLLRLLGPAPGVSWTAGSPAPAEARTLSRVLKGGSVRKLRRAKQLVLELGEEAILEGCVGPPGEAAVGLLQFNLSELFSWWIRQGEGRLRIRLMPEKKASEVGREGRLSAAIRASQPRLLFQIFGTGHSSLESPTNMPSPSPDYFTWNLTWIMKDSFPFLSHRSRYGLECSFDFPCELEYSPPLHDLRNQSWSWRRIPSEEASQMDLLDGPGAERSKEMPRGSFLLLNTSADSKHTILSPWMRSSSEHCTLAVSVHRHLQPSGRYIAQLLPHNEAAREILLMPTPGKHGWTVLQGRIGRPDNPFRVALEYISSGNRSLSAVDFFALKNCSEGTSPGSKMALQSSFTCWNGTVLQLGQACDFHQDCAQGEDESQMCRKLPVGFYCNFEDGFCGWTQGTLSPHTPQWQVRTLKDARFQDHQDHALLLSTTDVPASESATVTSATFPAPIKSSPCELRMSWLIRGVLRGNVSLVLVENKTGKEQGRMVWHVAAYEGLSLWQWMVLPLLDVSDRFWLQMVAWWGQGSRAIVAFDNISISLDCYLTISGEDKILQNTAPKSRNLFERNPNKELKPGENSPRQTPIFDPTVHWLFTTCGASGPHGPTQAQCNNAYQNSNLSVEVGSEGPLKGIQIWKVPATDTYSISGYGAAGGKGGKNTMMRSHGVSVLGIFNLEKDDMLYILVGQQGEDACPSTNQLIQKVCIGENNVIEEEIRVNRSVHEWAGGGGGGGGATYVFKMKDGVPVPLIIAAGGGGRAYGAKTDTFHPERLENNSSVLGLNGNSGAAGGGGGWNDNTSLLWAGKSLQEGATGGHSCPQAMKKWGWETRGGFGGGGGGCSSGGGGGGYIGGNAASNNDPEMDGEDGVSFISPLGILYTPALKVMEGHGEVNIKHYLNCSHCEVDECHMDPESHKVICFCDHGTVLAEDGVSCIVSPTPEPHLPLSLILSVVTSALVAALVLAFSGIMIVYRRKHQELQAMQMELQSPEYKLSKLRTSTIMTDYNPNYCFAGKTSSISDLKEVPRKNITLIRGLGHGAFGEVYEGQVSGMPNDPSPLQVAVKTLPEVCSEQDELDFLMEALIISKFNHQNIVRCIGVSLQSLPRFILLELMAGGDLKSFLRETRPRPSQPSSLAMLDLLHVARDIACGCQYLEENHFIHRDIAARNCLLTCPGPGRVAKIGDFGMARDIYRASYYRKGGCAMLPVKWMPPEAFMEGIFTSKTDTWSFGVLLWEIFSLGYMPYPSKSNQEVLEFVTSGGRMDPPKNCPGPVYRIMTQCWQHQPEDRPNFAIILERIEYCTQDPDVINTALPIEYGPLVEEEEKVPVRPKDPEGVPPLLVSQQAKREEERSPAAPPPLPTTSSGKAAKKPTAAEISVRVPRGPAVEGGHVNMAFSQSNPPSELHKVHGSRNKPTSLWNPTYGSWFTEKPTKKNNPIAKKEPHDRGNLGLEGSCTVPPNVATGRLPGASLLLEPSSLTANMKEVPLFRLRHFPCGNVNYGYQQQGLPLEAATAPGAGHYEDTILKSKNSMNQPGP

Row | SMILES | IC50 (ALK; [1]) [µM] | IC50 (H3122 cells; [2]) [µM] | IC50 (H3122 cells; [1]) [µM] | IC50 (SET 2 (JAK2 V617F) cells; SET-2, 72 h) [µM] | IC50 (H3122 cells; [3]) [µM] | IC50 (HEL (JAK2 V617F) cells; 72 h) [µM] | IC50 (ALK; Table 2) [µM] | IC50 (JAK2; Table 2, read-out: JAK2 IC50) [µM] | IC50 (SET 2 (JAK2 V617F) cells; SET-2) [µM] | IC50 (H3122 cells; [4]) [µM] | IC50 (HEL (JAK2 V617F) cells) [µM] | IC50 (JAK2; Table 1, read-out: JAK2 kinase activity IC50) [µM]
1 | CC(Oc1cc(-c2cnn(C3CCOCC3)c2)cnc1N)c1cc(F)ccc1Cl (single isomer, unassigned) [Configuration 1] | 6.5 | 56.7 |  |  |  |  |  |  |  |  |  | 
2 | CC(Oc1cc(-c2cnn(C3CCOCC3)c2)cnc1N)c1cc(F)ccc1Cl (single isomer, unassigned) [Configuration 2] | > 10 |  | > 100 |  |  |  |  |  |  |  |  | 
3 | C[C@@H](Oc1cc(-c2cnn(C3CCNCC3)c2)cnc1N)c1c(Cl)ccc(F)c1Cl [Crizotinib, reference compound] |  |  |  | 0.47 | 0.842 ± 0.056 | 7.3 |  |  |  |  |  | 
4 | CC(Oc1cc(-c2cncnc2)cnc1N)c1cc(F)ccc1Cl (stereo not drawn) [MXY-032-45] |  |  |  |  |  |  | 3.67 | 0.566 ± 0.029 | > 10 | > 100 | > 10 | 
5 | CC(Oc1cc(-c2cnn(C3COC3)c2)cnc1N)c1cc(F)ccc1Cl (stereo not drawn) [MXY-032-51] |  |  |  |  |  |  | 0.335 | 0.025 ± 0.001 | 31.2 | 9.91 ± 1.28 | 4.67 | 
6 | CC(Oc1cc(-c2cnn(C3CCOC3)c2)cnc1N)c1cc(F)ccc1Cl (stereo not drawn) [MXY-032-53] |  |  |  |  |  |  | 1.24 | 0.027 ± 0.001 | 44.1 | 6.34 ± 1.91 | 4.54 | 
7 | CC(Oc1cc(-c2cccc(N3CCOCC3)c2)cnc1N)c1cc(F)ccc1Cl (stereo not drawn) [MXY-032-55] |  |  |  |  |  |  | 3.89 | 0.528 ± 0.008 | 18.6 | 11.6 ± 6.02 | 5.99 | 
8 | CC(Oc1cc(Nc2cc3ccccc3cn2)cnc1N)c1cc(F)ccc1Cl (stereo not drawn) [MXY-032-69] |  |  |  |  |  |  | > 10 | > 5 | > 50 | 25.3 ± 6.24 | 10.7 | 
9 | CC(Oc1cc(Nc2ccc3ccccc3n2)cnc1N)c1cc(F)ccc1Cl (stereo not drawn) [MXY-032-85] |  |  |  |  |  |  | > 10 | > 10 | > 50 | 12 ± 2.32 | 5.74 | 
10 | CC(Oc1cc(Nc2nccc3ccccc23)cnc1N)c1cc(F)ccc1Cl (stereo not drawn) [MXY-032-87] |  |  |  |  |  |  | > 10 | > 10 | > 50 | 17.4 ± 0.25 | 9.47 | 
11 | CCOC(C)n1cc(-c2cnc(N)c(OC(C)c3cc(F)ccc3Cl)c2)cn1 (stereo not drawn) [MXY-032-91] |  |  |  |  |  |  | 5.28 | 0.157 ± 0.031 | 6.34 | 2.08 ± 0.803 | 4.56 | 
12 | COCCCn1cc(-c2cnc(N)c(OC(C)c3cc(F)ccc3Cl)c2)cn1 (stereo not drawn) [MXY-032-93] |  |  |  |  |  |  | 2.33 | 0.015 ± 0.001 | 2.88 | 1.98 ± 0.84 | 3.45 | 
13 | COCCn1cc(-c2cnc(N)c(OC(C)c3cc(F)ccc3Cl)c2)cn1 (stereo not drawn) [MXY-032-95] |  |  |  |  |  |  | 2.36 | 0.011 ± 0.001 | 3.9 | 1.36 ± 0.869 | 2.34 | 
14 | CC(Oc1cc(-c2cn(C)c3ccccc23)cnc1N)c1cc(F)ccc1Cl (stereo not drawn) [MXY-89] |  |  |  |  |  |  | 7.89 | 0.695 ± 0.002 | 11 | 6.874 ± 0.022 | 2.44 | 
15 | CC(Oc1cc(-c2cnn3ccccc23)cnc1N)c1cc(F)ccc1Cl (stereo not drawn) [MXY-97] |  |  |  |  |  |  | 1.23 | 0.061 ± 0.007 | 4.51 | 3.3 ± 0.05 | 1.85 | 
16 | COc1ncc(F)cc1C(C)Oc1cc(-c2cnn(C3CCNCC3)c2)cnc1N (stereo not drawn) [MXY-111] |  |  |  |  |  |  | 0.132 |  | 2.48 | 0.988 ± 0.047 | 12.4 | 
17 | CC(Oc1cc(-c2c[nH]c3ccccc23)cnc1N)c1cc(F)ccc1Cl (stereo not drawn) [MXY-137] |  |  |  |  |  |  | 5.5 | 0.925 ± 0.102 | 12.5 | 50.6 ± 8.01 | 1.67 | 
18 | CC(Oc1cc(-c2cc3ccccc3[nH]2)cnc1N)c1cc(F)ccc1Cl (stereo not drawn) [MXY-141] |  |  |  |  |  |  | > 10 |  | 13.2 | > 100 | 12.2 | 
19 | CC(Oc1cc(Nc2ccccc2)cnc1N)c1cc(F)ccc1Cl (stereo not drawn) [MXY-171] |  |  |  |  |  |  | > 10 | 3.35 ± 0.063 | 2.14 | 17.57 ± 0.161 | 2.11 | 
20 | CC(Oc1cc(Nc2ccccn2)cnc1N)c1cc(F)ccc1Cl (stereo not drawn) [MXY-175] |  |  |  |  |  |  | > 10 | 1.1 ± 0.081 | 11 | > 100 | 2.23 | 
21 | CC(Oc1cc(-c2cnn3cccnc23)cnc1N)c1cc(F)ccc1Cl (stereo not drawn) [MXY-181] |  |  |  |  |  |  | 2.34 | 0.145 ± 0.01 | > 50 | 62.5 ± 4.78 | 49 | 
22 | Cc1cc(Nc2cnc(N)c(OC(C)c3cc(F)ccc3Cl)c2)nn1C (stereo not drawn) [MXY-191] |  |  |  |  |  |  | > 10 | 2.68 ± 0.05 | > 50 | > 100 | 23.1 | 
23 | CC(Oc1cc(-c2cnn(C3CCOCC3)c2)cnc1N)c1cc(F)ccc1Cl (stereo not drawn) [MXY-193] | > 10 | 78.8 ± 2.27 |  |  | 78.8 ± 2.27 |  | > 10 |  |  |  |  | 
24 | N#CC[C@H](C1CCCC1)n1cc(-c2ncnc3[nH]ccc23)cn1 [Ruxolitinib, reference compound] |  |  |  |  |  |  |  |  |  | 27.2 ± 3.39 |  | 
25 | CC(Oc1cc(-c2cnn(C3CCNCC3)c2)cnc1N)c1cc(F)ccc1Cl (stereo not drawn) [WWQ-131, 4-{3-[1-(2-chloro-5-fluorophenyl)ethoxy]-2-aminopyridine}pyrazol-1-piperidine] |  |  |  | 1.33 | 1.591 ± 0.014 | 9.78 | 0.089 |  |  |  |  | 0.0067 ± 0.001
26 | CC(Oc1cc(-c2cnn(C3CCNCC3)c2)cnc1N)c1c(Cl)ccc(F)c1Cl (stereo not drawn) [WWQ-1093-65, 4-{3-[1-(2,6-dichloro-3-fluorophenyl)ethoxy]-2-aminopyridine}pyrazole-1-piperidine] |  |  |  | 1.49 | 0.648 ± 0.044 | 11.7 |  |  |  |  |  | 
27 | CC(Oc1cc(-c2ccn[nH]2)cnc1N)c1cc(F)ccc1Cl (stereo not drawn) [XFL-141] |  |  |  |  |  |  |  | 0.3021 ± 0.003 | 2.48 | 78.6 ± 3 | 5.41 | 
